Test in all cases: inhibition of tumour cell growth, NCI panel, 48 h
Assay [1] deals with COLO 205 colon.
Assay [2] has as its system KM12 colon.
Assay [3] relates to UACC-257 melanoma.
Assay [4] has as its system M14 melanoma.
In assay [5] the test system is CCRF-CEM leukemia.
In assay [6] the test system is RXF 393 renal.
The subject of assay [7] is SNB-19 CNS.
Assay [8] has as its system MALME-3M melanoma.
For assay [9], the system named is HCT-116 colon.
The test system of assay [10] is OVCAR-8 ovarian.

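Briefly, cells in 96-well plates were exposed to five compound concentrations for 48 h, and endpoints were estimated by linear interpolation. GI50 marks 50% less growth. Definition used: TGI = concentration required for complete inhibition of growth.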 Some results are limits rather than exact numbers.

For `O=C(Nn1c2c(sc1=NC1CC1)C(=O)c1ccccc1C2=O)c1cc2ccc1CCc1ccc(cc1)CC2`, the GI50 in assay [1] was 3.36 µM; in assay [2], 3.12 µM; in [3], 1.69 µM; in [4], 1.33 µM; in [5], 2.53 µM; in [6] it was 1.85 µM. The GI50 was 3.09 µM in [7], 0.57 µM in [8], 1.94 µM in assay [9] and 2.62 µM in assay [10]. The TGI in [1] was 12.7 µM; in [2], 13.7 µM; in assay [3], 3.41 µM; in [4], 2.83 µM; in assay [5], greater than 100 µM; in [6], 4.75 µM. The TGI in [7] amounted to 11.7 µM; in assay [8], 1.75 µM; in assay [9] it was 6.45 µM; in assay [10] it was 11.6 µM.
Turning to `O=C(Nc1ccccc1)OCc1nc2c([nH]1)C(=O)C=CC2=O`, the TGI in assay [1] amounted to 3.94 µM; in assay [2], 29 µM; in [3] it was 13.7 µM; in assay [4], 29.8 µM; in [5], 13.1 µM; in [6], 23 µM. Further, the TGI in [7] came to 28.5 µM; in assay [8], 18.3 µM; in [9] it was 28.4 µM; in [10] it was 34 µM.

Source of the values: PubChem BioAssay (NCI).
